{"source": "ChEMBL document CHEMBL1201862", "about": "“PubChem BioAssay data set” (2004)", "key": {"[1]": {"biological_target": "T1, RNA-binding protein pos-1 (Caenorhabditis elegans, UniProt G5EF15)", "T1 sequence (G5EF15 whole entry)": "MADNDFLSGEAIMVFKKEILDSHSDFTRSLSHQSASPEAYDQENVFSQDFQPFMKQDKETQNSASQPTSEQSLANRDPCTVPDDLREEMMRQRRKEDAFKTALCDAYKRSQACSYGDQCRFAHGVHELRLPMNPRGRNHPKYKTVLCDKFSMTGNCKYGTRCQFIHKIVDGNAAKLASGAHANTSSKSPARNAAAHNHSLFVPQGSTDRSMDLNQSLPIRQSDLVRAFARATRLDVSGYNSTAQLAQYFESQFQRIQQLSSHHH", "assay": "disruptors of C. elegans POS-1 RNA interaction – biochemical, fluorescence polarization, dose response (AID 1964);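 also: purified POS-1 fused to maltose binding protein made in E. coli; potency of compounds blocking POS-1 binding to fluorescent RNA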"}, "[2]": {"biological_target": "T2, Zinc finger protein mex-5 (Caenorhabditis elegans, UniProt Q9XUB2)", "T2 sequence (Q9XUB2 whole entry)": "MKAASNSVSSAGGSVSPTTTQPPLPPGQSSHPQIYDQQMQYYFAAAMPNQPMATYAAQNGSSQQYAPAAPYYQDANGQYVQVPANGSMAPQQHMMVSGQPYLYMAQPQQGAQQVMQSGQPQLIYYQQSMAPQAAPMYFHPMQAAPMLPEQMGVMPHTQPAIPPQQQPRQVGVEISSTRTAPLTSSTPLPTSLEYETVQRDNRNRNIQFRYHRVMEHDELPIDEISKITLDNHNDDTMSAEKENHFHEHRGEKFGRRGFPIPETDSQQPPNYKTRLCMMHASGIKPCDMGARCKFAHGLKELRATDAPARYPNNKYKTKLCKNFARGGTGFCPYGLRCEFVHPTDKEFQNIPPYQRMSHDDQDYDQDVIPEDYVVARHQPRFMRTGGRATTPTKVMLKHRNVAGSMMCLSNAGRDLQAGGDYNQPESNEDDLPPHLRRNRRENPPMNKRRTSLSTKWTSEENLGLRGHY", "assay": "potency of MEX-5 RNA-binding blockers – biochemical, C. elegans, fluorescence polarization, dose response (AID 1960)"}, "[3]": {"biological_target": "T3, Corticotropin-releasing factor receptor 2/Corticotropin-releasing factor-binding protein (Homo sapiens, UniProt P24387+Q13324)", "T3 sequence (Q13324 whole entry)": "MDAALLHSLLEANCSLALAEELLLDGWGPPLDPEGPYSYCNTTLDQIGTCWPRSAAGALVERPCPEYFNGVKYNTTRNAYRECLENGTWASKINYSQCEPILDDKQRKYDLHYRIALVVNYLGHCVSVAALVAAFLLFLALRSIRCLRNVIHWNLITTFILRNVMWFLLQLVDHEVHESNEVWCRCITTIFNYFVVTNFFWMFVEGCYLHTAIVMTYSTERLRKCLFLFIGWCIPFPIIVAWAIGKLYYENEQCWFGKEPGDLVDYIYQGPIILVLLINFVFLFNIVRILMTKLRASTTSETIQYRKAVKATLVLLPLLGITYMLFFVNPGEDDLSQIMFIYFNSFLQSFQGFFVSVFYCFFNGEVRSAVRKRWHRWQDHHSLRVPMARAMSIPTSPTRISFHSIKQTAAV", "T3 sequence (P24387 whole entry)": "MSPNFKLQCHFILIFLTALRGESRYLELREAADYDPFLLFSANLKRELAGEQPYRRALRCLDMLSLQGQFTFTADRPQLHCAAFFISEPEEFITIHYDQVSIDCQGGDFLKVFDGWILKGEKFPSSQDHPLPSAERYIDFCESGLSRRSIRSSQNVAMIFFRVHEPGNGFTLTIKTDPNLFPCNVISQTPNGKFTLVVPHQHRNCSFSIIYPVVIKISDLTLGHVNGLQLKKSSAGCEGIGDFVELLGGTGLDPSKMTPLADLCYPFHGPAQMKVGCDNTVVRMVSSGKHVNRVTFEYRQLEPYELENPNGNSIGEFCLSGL", "assay": "Dose Response confirmation of uHTS hits for small molecule antagonists of the CRF-binding protein and CRF-R2 receptor complex.", "assay_type": "functional", "conditions": "read-out: IC50_Mean"}, "[4]": {"biological_target": "T3, Corticotropin-releasing factor receptor 2/Corticotropin-releasing factor-binding protein", "assay": "activators of CRF receptor 2 with binding protein – uHTS hits, confirmation (AID 602473)", "assay_type": "functional", "conditions": "read-out: EC50_Mean"}, "Nonstructural protein 1": {"biological_target": "Nonstructural protein 1 (Influenza A virus, UniProt Q194T2)", "sequence (Q194T2 whole entry)": "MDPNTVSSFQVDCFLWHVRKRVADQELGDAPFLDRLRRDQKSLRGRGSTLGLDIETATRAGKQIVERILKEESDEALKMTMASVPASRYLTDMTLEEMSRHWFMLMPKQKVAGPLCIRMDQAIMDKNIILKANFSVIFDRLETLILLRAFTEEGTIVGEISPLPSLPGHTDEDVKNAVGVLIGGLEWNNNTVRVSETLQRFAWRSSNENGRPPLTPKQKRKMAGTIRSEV", "assay_type": "functional, Influenza A virus (A/California/07/2009(H1N1))"}, "HEK293": {"tested_on": "HEK293", "assay": "EBV LMP1 TES2 canonical NF-kB signalling blockers – cell-based, HEK293, luciferase, cherry-pick, dose response (AID 588343)", "assay_type": "functional", "conditions": "Homo sapiens"}, "[5]": {"assay": "non-specific 3'UTR reporter inhibition in Clone20-Shn3RL – cell-based, Renilla luciferase, cherry-picked, counter-screen for Shn3 inhibitor project, dose response (AID 624133)", "assay_type": "functional"}, "Paired box protein Pax-8": {"biological_target": "Paired box protein Pax-8 (Homo sapiens, UniProt Q06710)", "sequence (Q06710 whole entry)": "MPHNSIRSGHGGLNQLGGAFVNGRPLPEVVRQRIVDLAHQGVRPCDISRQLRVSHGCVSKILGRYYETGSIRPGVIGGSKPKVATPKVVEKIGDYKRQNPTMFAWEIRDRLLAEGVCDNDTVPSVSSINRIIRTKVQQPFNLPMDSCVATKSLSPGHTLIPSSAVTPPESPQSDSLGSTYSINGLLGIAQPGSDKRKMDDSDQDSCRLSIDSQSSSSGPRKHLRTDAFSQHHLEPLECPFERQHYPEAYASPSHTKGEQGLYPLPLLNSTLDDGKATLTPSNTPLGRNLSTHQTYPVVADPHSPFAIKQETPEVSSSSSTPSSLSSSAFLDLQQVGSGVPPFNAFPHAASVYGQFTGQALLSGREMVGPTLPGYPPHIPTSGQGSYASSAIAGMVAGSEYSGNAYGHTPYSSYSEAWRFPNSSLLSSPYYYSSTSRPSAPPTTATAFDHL", "assay": "PAX8 transcriptional activity inhibition in RMG-I – RMG-I cells, luciferase, cherry-pick, dose response (AID 687027);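 also: luciferase reporter driven by Pax8 target thyroperoxidase promoter measured by SteadyGlo luminescence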", "assay_type": "functional, cell-based"}, "[6]": {"assay": "loss of viability in HepG2 cells – cell-based, CellTiter-Glo, cherry-picked, cytotoxicity control for Shn3 inhibitor project, dose response (AID 624134)", "assay_type": "functional"}, "[7]": {"assay": "viability of PTEN-deleted HCT116 cells – cell-based, HCT116 PTEN knockout, dose response (AID 1047);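 also: cells exposed to compound for 60 hours before readout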", "assay_type": "functional"}, "[8]": {"assay": "reduction of Shn3 3'UTR-driven luciferase in osteoblasts – cell-based, Clone20 osteoblasts, firefly luciferase, cherry-picked, dose response (AID 624132)", "assay_type": "functional"}, "INS1": {"tested_on": "INS1", "assay": "INS-1E survival protection against cytokine death – cell-based, luminescence, retest, dose response (AID 449756);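 also: cell death triggered by IL-1 beta plus TNF-alpha plus IFN-gamma mixture; protective hits raise ATP signal compared with cytokine alone wells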", "assay_type": "functional", "conditions": "Rattus norvegicus"}, "[9]": {"assay": "Luminescence Cell-Based Dose Retest to Confirm Inhibitors of Cancer Stem Cells. [Related pubchem assays (depositor defined):AID2717, AID2721]", "assay_type": "functional", "conditions": "Homo sapiens"}, "[10]": {"assay": "viability of HCT116 lacking mutant beta-catenin – cell-based, human colon tumor, dose response (AID 1045);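 also: cells exposed to compound for 60 hours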", "assay_type": "functional"}, "Fatty acid synthase [11]": {"biological_target": "T4, Fatty acid synthase (Homo sapiens, UniProt P49327)", "T4 sequence (P49327 whole entry)": "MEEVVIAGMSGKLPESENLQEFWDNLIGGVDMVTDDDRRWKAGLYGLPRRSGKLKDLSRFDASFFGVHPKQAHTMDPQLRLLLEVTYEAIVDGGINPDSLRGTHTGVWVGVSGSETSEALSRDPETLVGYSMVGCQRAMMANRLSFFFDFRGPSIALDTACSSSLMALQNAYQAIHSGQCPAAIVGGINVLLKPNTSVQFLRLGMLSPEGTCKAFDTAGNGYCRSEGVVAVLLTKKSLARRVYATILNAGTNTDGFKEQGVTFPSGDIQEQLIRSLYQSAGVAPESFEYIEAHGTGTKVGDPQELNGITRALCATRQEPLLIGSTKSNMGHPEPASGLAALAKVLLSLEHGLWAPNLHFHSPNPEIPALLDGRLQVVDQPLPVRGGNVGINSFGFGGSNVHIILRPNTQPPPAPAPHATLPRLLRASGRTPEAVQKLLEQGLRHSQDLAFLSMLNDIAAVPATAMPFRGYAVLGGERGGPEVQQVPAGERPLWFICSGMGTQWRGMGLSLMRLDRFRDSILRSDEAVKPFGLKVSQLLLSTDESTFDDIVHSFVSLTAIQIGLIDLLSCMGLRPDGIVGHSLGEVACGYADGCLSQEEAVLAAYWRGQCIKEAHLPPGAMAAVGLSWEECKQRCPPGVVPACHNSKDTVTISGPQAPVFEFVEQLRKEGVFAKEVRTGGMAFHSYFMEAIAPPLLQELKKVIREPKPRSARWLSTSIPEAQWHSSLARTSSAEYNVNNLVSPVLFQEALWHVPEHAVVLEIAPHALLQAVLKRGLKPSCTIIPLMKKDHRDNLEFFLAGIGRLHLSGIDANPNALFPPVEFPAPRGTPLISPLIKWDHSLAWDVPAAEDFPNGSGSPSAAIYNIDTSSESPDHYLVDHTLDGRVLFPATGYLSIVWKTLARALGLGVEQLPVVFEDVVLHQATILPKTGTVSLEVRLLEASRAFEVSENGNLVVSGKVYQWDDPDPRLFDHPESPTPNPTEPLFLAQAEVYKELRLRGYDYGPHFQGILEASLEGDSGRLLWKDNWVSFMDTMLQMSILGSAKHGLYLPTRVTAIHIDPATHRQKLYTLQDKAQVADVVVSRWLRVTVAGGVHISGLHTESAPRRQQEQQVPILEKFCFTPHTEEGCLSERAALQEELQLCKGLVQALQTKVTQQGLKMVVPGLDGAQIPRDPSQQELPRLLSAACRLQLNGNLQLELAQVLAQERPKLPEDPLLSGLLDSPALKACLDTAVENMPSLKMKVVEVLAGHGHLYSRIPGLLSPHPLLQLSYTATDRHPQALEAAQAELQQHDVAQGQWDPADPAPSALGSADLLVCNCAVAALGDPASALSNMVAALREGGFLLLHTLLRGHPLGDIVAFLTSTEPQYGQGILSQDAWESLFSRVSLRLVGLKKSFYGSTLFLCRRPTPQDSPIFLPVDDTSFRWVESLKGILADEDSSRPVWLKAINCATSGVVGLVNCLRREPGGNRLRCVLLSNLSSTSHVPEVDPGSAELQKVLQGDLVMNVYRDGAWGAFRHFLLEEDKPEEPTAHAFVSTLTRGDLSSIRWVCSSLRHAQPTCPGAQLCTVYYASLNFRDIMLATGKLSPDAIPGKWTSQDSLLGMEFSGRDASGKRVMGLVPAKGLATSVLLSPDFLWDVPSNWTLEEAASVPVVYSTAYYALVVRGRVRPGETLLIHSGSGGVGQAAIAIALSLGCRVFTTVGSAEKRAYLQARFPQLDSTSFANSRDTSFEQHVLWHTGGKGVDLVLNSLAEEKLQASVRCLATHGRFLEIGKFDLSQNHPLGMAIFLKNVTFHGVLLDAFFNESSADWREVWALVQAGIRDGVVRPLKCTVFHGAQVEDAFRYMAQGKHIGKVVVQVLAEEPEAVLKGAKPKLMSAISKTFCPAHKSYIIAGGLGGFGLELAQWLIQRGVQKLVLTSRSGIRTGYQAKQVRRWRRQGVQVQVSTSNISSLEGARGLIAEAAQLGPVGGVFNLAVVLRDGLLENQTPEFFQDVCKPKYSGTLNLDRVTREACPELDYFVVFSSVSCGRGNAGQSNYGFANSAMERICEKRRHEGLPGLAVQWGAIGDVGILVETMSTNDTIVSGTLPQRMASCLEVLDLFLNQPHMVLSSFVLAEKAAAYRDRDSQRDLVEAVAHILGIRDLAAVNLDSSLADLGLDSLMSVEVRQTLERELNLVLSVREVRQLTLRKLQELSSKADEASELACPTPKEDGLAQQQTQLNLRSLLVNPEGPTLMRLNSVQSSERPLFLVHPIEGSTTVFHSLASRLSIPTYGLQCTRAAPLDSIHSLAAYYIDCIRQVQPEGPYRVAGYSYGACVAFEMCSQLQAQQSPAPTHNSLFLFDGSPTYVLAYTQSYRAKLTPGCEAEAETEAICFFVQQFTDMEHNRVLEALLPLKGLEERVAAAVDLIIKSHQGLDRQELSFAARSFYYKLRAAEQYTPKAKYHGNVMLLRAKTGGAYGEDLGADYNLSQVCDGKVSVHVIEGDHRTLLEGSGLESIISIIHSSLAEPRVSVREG", "assay": "inhibition of human FAS-TE enzyme activity – biochemical, endpoint fluorescence intensity, uHTS hits, dose response (AID 624327);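 also: fluorescence from hydrolysis of an O-methyl fluorescein acyl ester substrate by the enzyme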", "assay_type": "functional"}, "Fatty acid synthase [12]": {"biological_target": "T4, Fatty acid synthase", "assay": "inhibition of human FAS-TE enzyme activity – biochemical, kinetic fluorescence intensity, dose response (AID 624326);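 also: rate of fluorescence rise from hydrolysis of a fluorogenic O-methyl fluorescein ester substrate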", "assay_type": "functional"}, "[13]": {"assay": "viability of uninfected HEp-2 cells – cell-based, HTS, cytotoxicity control for RSV inhibitor project, dose response (AID 2410)", "assay_type": "functional", "conditions": "human respiratory syncytial virus"}, "Cytochrome P450 3A4": {"biological_target": "Cytochrome P450 3A4 (Homo sapiens, UniProt P08684)", "sequence (P08684 whole entry)": "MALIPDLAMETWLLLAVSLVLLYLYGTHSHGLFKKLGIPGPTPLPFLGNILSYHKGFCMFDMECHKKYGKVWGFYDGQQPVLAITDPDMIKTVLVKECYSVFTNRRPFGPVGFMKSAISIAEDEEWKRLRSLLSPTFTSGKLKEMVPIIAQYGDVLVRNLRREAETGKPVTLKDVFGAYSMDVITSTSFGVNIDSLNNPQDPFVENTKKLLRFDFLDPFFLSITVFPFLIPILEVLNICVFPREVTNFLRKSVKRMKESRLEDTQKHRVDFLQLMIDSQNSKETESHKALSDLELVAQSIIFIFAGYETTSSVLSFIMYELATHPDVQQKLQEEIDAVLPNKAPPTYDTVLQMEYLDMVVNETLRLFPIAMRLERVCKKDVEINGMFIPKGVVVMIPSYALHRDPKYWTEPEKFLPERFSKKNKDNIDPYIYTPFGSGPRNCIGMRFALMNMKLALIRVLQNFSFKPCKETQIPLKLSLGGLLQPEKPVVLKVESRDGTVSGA", "conditions": "Potency"}}, "note": "Active and inactive are the calls of the source."}
{"smiles": "O=C1N=C(Nc2ccccc2Cl)S/C1=C\\c1cc([N+](=O)[O-])ccc1O", "values": [{"measurement": "EC50", "setting": "[1]", "value": "10.9 µM (active)"}, {"measurement": "EC50", "setting": "[2]", "value": "> 300 µM (not active)"}]}
{"smiles": "COc1ccc(/C=C/C(=O)NC(=S)Nc2ccc(S(=O)(=O)Nc3cc(OC)ncn3)cc2)cc1", "values": [{"measurement": "IC50", "setting": "[3]", "value": "> 47.1 µM (inactive)"}, {"measurement": "EC50", "setting": "[4]", "value": "> 53 µM (inactive)"}]}
{"smiles": "Cc1cccn2c(=O)c(/C=C(\\C#N)C(N)=O)c(N3CCN(c4cccc(Cl)c4)CC3)nc12", "values": [{"measurement": "IC50", "setting": "Nonstructural protein 1", "value": "> 100 µM (active)"}]}
{"smiles": "CCOC(=O)COn1c(=O)c(-c2cc3ccccc3o2)[n+]([O-])c2ccccc21", "values": [{"measurement": "EC50", "setting": "[1]", "value": "> 300 µM (not active)"}, {"measurement": "EC50", "setting": "[2]", "value": "27.6 µM (active)"}]}
{"smiles": "Cn1c(=O)c2cc3ccc(Cl)cc3nc2n(C)c1=O", "values": [{"measurement": "IC50", "setting": "[3]", "value": "> 47.1 µM (inactive)"}, {"measurement": "EC50", "setting": "[4]", "value": "> 53 µM (inactive)"}]}
{"smiles": "CCCCOc1ccc2c(c1)/C(=C(\\C(Cl)=C(Cl)Cl)[N+](=O)[O-])N2", "values": [{"measurement": "IC50", "setting": "[3]", "value": "> 47.1 µM (inactive)"}, {"measurement": "EC50", "setting": "[4]", "value": "37.9 µM (active)"}]}
{"smiles": "COc1cccc(C=NNC(=O)C[n+]2ccccc2)c1O", "values": [{"measurement": "IC50", "setting": "Nonstructural protein 1", "value": "10.4 µM (active)"}]}
{"smiles": "CCOc1ccc(OCc2cccc(C(=O)N3CCCCCC3)c2)cc1", "values": [{"measurement": "AC50", "setting": "HEK293", "value": "4.36 µM (active)"}]}
{"smiles": "O=C(CN1CC(=O)Oc2ccccc21)OCC(=O)c1ccccc1", "values": [{"measurement": "IC50", "setting": "Nonstructural protein 1", "value": "1.47 µM (active)"}]}
{"smiles": "O=C(Nc1cccc(C(F)(F)F)c1)Nc1ccc(N2CCCC2)c(S(=O)(=O)Nc2ccccc2Cl)c1", "values": [{"measurement": "AC50", "setting": "[5]", "value": "5.49 µM (active)"}, {"measurement": "AC50", "setting": "Paired box protein Pax-8", "value": "6.41 µM (active)"}, {"measurement": "AC50", "setting": "[6]", "value": "5.53 µM (active)"}, {"measurement": "EC50", "setting": "[7]", "value": "3.89 µM (active)"}, {"measurement": "AC50", "setting": "[8]", "value": "4.42 µM (active)"}, {"measurement": "AC50", "setting": "INS1", "value": "3.57 µM (active)"}, {"measurement": "AC50", "setting": "[9]", "value": "0.848 µM (active)"}, {"measurement": "EC50", "setting": "[10]", "value": "4.39 µM (active)"}]}
{"smiles": "Cc1c([N+](=O)[O-])cc(S(=O)(=O)Nc2ccc(-c3ccc(N4CCCC4)nn3)cc2)cc1[N+](=O)[O-]", "values": [{"measurement": "IC50", "setting": "Fatty acid synthase [11]", "value": "0.867 µM (active)"}, {"measurement": "IC50", "setting": "Fatty acid synthase [12]", "value": "0.524 µM (active)"}, {"measurement": "CC50", "setting": "[13]", "value": "> 50 µM (active)"}]}
{"smiles": "O=C(COc1ccc(Br)cc1)N1CCN(Cc2c[nH]c3ccccc23)CC1", "values": [{"measurement": "AC50", "setting": "INS1", "value": "3.34 µM (active)"}]}
{"smiles": "Cc1ccc(S(=O)(=O)NNc2nc3ccccc3nc2C(F)(F)F)cc1", "values": [{"measurement": "EC50", "setting": "[1]", "value": "39.8 µM (active)"}, {"measurement": "EC50", "setting": "[2]", "value": "21.5 µM (inconclusive)"}]}
{"smiles": "CC1(OC(=O)CCc2ccccc2)C(=O)C=C2C=C(c3ccsc3)OC=C2C1=O", "note": "(stereo not given)", "values": [{"measurement": "EC50", "setting": "[1]", "value": "49.7 µM (active)"}, {"measurement": "EC50", "setting": "[2]", "value": "28.2 µM (active)"}]}
{"smiles": "CCn1cc(C(=O)NCc2ccco2)c(=O)c2cc(S(=O)(=O)N3CCC(C)CC3)ccc21", "values": [{"measurement": "IC50", "setting": "Fatty acid synthase [11]", "value": "2.6 µM (active)"}, {"measurement": "IC50", "setting": "Fatty acid synthase [12]", "value": "3.21 µM (active)"}]}
{"smiles": "CC1CC2C3CCC4=CC(=O)C=C[C@@]4(C)[C@]3(F)C(O)C[C@]2(C)[C@]1(O)C(=O)COP(=O)(O)O", "note": "(stereo not given in full)", "values": [{"measurement": "AC50", "setting": "Cytochrome P450 3A4", "value": "39.8 µM (inconclusive)"}]}
{"smiles": "CC(C)(C)c1ccc(COC(=O)CN2C(=O)NC3(CCCC3)C2=O)cc1", "values": [{"measurement": "IC50", "setting": "Fatty acid synthase [11]", "value": "4.84 µM (active)"}, {"measurement": "IC50", "setting": "Fatty acid synthase [12]", "value": "5.17 µM (active)"}]}
